Experimental data from patent US4145540A, “7β-Phosphoramido-7α-methoxycephalosporanic acid derivatives” (Takeda Chemical Industries, Ltd., priority 1975, dated 1979).

Key:
Test in all cases: antibiotic activity (MIC)
Type in all cases: cell-based
S. aureus Fs 40204 = conditions: Staphylococcus aureus, FS40204
Excerpt: (§1) The antibiotic activity of sodium 7α-methoxy-7β-(2-aminothiazol-4-ylacetamido)-3-(1-methyl-1H-tetrazol-5-ylthiomethyl)-3-cephem-4-carboxylate obtained in the reference experiment is shown as follows.

E. coli T-7 = conditions: Escherichia coli, T7
Excerpt: as §1

Serratia TN0024 = test system: Serratia TN0024
Excerpt: as §1

E. coli NIHJ = conditions: Escherichia coli
Excerpt: as §1

[1] = test system: Serr. marcescens IFO 12648; conditions: Serratia marcescens, IFO12648
Excerpt: as §1

P. vulgaris GN 4413 = conditions: Proteus vulgaris, GN4413
Excerpt: as §1

K. pneumoniae DT = conditions: Klebsiella pneumoniae
Excerpt: as §1

K. pneumoniae GN 3835 = conditions: Klebsiella pneumoniae, GN3835
Excerpt: as §1

S. aureus 209p = conditions: Staphylococcus aureus
Excerpt: as §1

S. aureus 1840 = conditions: Staphylococcus aureus
Excerpt: as §1

Ps. aeruginosae PM3 = conditions: Pseudomonas aeruginosa
Excerpt: as §1

E. coli 0-111 = conditions: Escherichia coli, 0111
Excerpt: as §1

SMILES: CO[C@@]1(NC(=O)Cc2csc(N)n2)C(=O)N2C(C(=O)O)=C(CSc3nnnn3C)CS[C@@H]21 [Sodium 7α-methoxy-7β-(2-aminothiazol-4-ylacetamido)-3-(1-methyl-1H-tetrazol-5-ylthiomethyl)-3-cephem-4-carboxylate]
- MIC (S. aureus Fs 40204): 3.13 µg/mL
- MIC (E. coli T-7): 6.25 µg/mL
- MIC (Serratia TN0024): 6.25 µg/mL
- MIC (E. coli NIHJ): 1.56 µg/mL
- MIC [1]: 6.25 µg/mL
- MIC (P. vulgaris GN 4413): 6.25 µg/mL
- MIC (K. pneumoniae DT): 0.78 µg/mL
- MIC (K. pneumoniae GN 3835): 1.56 µg/mL
- MIC (S. aureus 209p): 1.56 µg/mL
- MIC (S. aureus 1840): 3.13 µg/mL
- MIC (Ps. aeruginosae PM3): 6.25 µg/mL
- MIC (E. coli 0-111): 0.78 µg/mL
